Experimental data reported in patent publication US5759768A, “Assays for factors affecting circularization of DNA, assays for factors affecting DNA integration, factors, and uses thereof” (priority 1995, dated 1998).

System: viral DNA
Test: PCR analysis of circular viral DNA formed in vitro
Format: biochemical, HIV-1
Description: The following oligonucleotides were used for PCR: PBS, 5'-GTCGCCGCCCCTCGCCTC-3'(SEQ ID No. 1); tat, 5'-[…]-3'(SEQ ID No. 2); nef, 5'-[…]-3'(SEQ ID No. 3); R1, 5'-[…]-3'(SEQ ID No. 4); R2, 5'-[…]-3'(SEQ ID No. […]). One hundred microliter reactions contained 10 mM Tris hydrochloride (pH 8.3), 50 mM KCl, 1.5 mM MgCl2, 0.001% (w/v) gelatin, 200 μM each dATP, dCTP, dGTP, and dTTP, 1 μM each of the indicated primer, and 2.5 units of AmpliTaq recombinant Taq DNA polymerase (Perkin Elmer Cetus Co., Norwalk, Conn.). For amplification of viral DNA from cytoplasmic extracts, each reaction contained approximately 1/30 the amount of DNA from a 3 ml extract. For amplification of viral DNA from Hirt extractions, each reaction contained DNA from the equivalent of 2×10^6 cells. An initial denaturation step at 98° C. was performed for 10 minutes. Thirty cycles of the PCR reaction were then performed with an annealing temperature of 60° C. for 1 minute, an extension temperature of 72° C. for 5 minutes, and a denaturation temperature of 95° C. for 1 minute. Reaction products were visualized following electrophoresis on 1% agarose gel containing ethidium bromide. […]
Additional rounds of PCR amplification were necessary to detect the presence of a DNA fragment corresponding to the 2-LTR junction fragment when viral DNA from Hirt supernatants of infected cells were used, presumably due to the lower concentration of 2-LTR circles as compared to 1-LTR circles in these preparations (data not shown). Similarly, 2-LTR junction fragments were not readily detected among the amplification products of circular viral DNA formed in vitro, most likely due to the low concentration of simple 2-LTR circles and competition by the other forms of circular viral DNA (1-LTR circles and 2-LTR circles formed by autointergration) present at much higher concentrations. […]

Nc1ncnc2c1ncn2[C@@H]1O[C@H](COP(=O)(O)OP(=O)(O)OP(=O)(O)O)[C@@H](O)[C@H]1O [ATP, adenosine triphosphate]
PCR amplification product (2-LTR junction, R region primers) (SalI digested circular DNA formed with added ATP): A DNA fragment of the same size was detected
PCR amplification products (PBS and tat primers, autointegration) (extracts incubated with 1 mM ATP): a mixture of DNA fragments of heterogeneous lengths
PCR amplification product (1-LTR circle junction) (extracts treated with 1 mM ATP, PBS and nef primers): a DNA fragment having the size expected for a 1-LTR circle junction was generated
